# In article PMC3698108, “Structural and bioactive studies of terpenes and cyclopeptides from the Genus Rubia” (Chemistry Central Journal, 2013):
# How the values were obtained:
# [1] = tested on: renal aldose reductase; details: cited from earlier work
# [2] = set-up: method as in PMID 20188082; details: mice; cited from earlier work
# [3] = tested on: four cell lines; details: cited from earlier work
# [4] = tested on: glyoxalase I; details: cited from earlier work
# [5] = tested on: DNA topoisomerase II; set-up: method as in PMID 18239313; details: cited from earlier work
# [6] = tested on: Vancomycin-Resistant Enterococci; details: cited from earlier work; for antimicrobial activities: weaker than clinical antimicrobial drugs
# [7] = tested on: HT-29, MCF-7 and HepG2; set-up: method as in PMID 18239313; details: cited from earlier work
# [8] = tested on: STAT3; details: cited from earlier work
# [9] = tested on: human immunodeficiency virus (HIV-1) protease; set-up: method as in PMID 8759159; details: cited from earlier work
# [10] = tested on: TRAIL-induced apoptosis; details: cited from earlier work
# [11] = tested on: corneal angiogenesis; set-up: method as in PMID 16827808; details: cited from earlier work
# [12] = tested on: BAEC; set-up: method as in PMID 16827808; details: cited from earlier work
# [13] = tested on: HL-60 and HCT-116; set-up: method as in PMID 22298232; details: cited from earlier work
# [14] = tested on: Lewis lung carcinoma cells; set-up: method as in PMID 16827808; details: daily intraperitoneal injection, 1.5 or 3 mg/kg/day, cited from earlier work
# [15] = tested on: pancreatic tumor; set-up: method as in PMID 20367887; details: cited from earlier work
# [16] = set-up: method as in PMID 17978478; details: KK-A^y mice; cited from earlier work
# [17] = tested on: human colon-cancer cells; set-up: method as in PMID 18790561, PMID 18298868; details: intrinsic mitochondrial pathway; cited from earlier work
# [18] = tested on: Protein kinase C (PKC); details: cited from earlier work
# [19] = tested on: HUVEC and HMEC-1; set-up: method as in PMID 21518338; details: cited from earlier work
# [20] = tested on: iNOS; set-up: method as in PMID 12808242; details: cited from earlier work
# [21] = tested on: RAW 264.7 murine macrophages; details: cited from earlier work
# [22] = tested on: Candida albicans; set-up: method as in PMID 21973054; details: turbidimetric method; cited from earlier work
# [23] = tested on: A549, Hela and SMMC-7721; set-up: method as in PMID 21973054; details: data not very satisfactory; cited from earlier work
# [24] = tested on: Staphylococcus aureus; set-up: method as in PMID 21973054; details: turbidimetric method; cited from earlier work
smiles,measurement,setting,value
"CC1(C)CC[C@]2(C(=O)O)CC[C@]3(C)C(=CC[C@@H]4[C@@]5(C)CC[C@H](O)C(C)(C)[C@@H]5CC[C@]43C)[C@@H]2C1 [Compound 12, Oleanolic acid]",renal aldose reductase activity,[1],markedly suppressed
same,glucose tolerance,[2],improve glucose tolerance
same,visceral adiposity,[2],ameliorate visceral adiposity
same,apoptotic effects,[3],markedly apoptotic effects
same,cell adhesion,[3],suppress cell adhesion
same,production of VEGF and ICAM-1,[3],reduce the production of VEGF and ICAM-1
same,activity of glyoxalase I,[4],enhanced the activity
same,inhibitory activity against DNA topoisomerase II compared with DNA topoisomerase I,[5],selective inhibitory activity
same,toxicity,[6],low toxicity
same,antimicrobial activities,[6],fairly high antimicrobial activities
same,"cytotoxicity against HT-29, MCF-7 and HepG2",[7],weak cytotoxicity
"C[C@H]1[C@H](C)CC[C@]2(C(=O)O)CC[C@]3(C)C(=CC[C@@H]4[C@@]5(C)CC[C@H](O)C(C)(C)[C@@H]5CC[C@]43C)[C@H]12 [Compound 11, Ursolic acid]",renal aldose reductase activity,[1],markedly suppressed
same,apoptotic effects,[3],markedly apoptotic effects
same,cell adhesion,[3],suppress cell adhesion
same,production of VEGF and ICAM-1,[3],reduce the production of VEGF and ICAM-1
same,activity of glyoxalase I,[4],enhanced the activity
same,STAT3 activation,[8],novel blocker of STAT3 activation
same,toxicity,[6],low toxicity
same,antimicrobial activities,[6],fairly high antimicrobial activities
same,inhibition on HIV-1 protease,[9],possess inhibition
same,TRAIL-induced apoptosis,[10],potentiated TRAIL-induced apoptosis
"COc1ccc(C[C@H]2C(=O)N[C@@H](C)C(=O)N(C)[C@H]3Cc4ccc(cc4)Oc4cc(ccc4OC)C[C@@H](C(=O)N[C@H](C)C(=O)N[C@@H](C)C(=O)N2C)N(C)C3=O)cc1 [Compound 74, RA-VII]",mouse corneal angiogenesis,[11],effects on mouse corneal angiogenesis
same,"antiangiogenic activity on proliferation, migration, stress fiber formation of BAEC",[12],antiangiogenic activity
same,cytotoxic activities against HL-60 and HCT-116,[13],potent cytotoxicities
same,growth of Lewis lung carcinoma cells inoculated into mice,[14],significantly and dose dependently inhibited
same,toxic effects on animals,[14]; mice,no toxic effects
"CC1(C)CC[C@]2(C(=O)O)CC[C@]3(C)C(=CC[C@@H]4[C@@]5(C)C[C@@H](O)[C@H](O)C(C)(C)[C@@H]5CC[C@]43C)[C@@H]2C1 [Compound 9, Maslinic acid]",effect on anti-tumor activities of TNF-α,[15],potentiate anti-tumor activities of TNF-α
same,pancreatic tumor growth and invasion,[15],inhibit pancreatic tumor growth and invasion
same,glucose-lowering and hypoinsulinemic effects,[16],significant glucose-lowering and hypoinsulinemic effects
same,caspase-dependent apoptosis,[17],induce caspase-dependent apoptosis
same,inhibition on HIV-1 protease,[9],possess inhibition
same,PKC inhibition,[18],acted as a PKC inhibitor
"COc1ccc(C[C@H]2C(=O)N[C@@H](C)C(=O)N(C)[C@H]3Cc4ccc(cc4)Oc4cc(ccc4O)C[C@@H](C(=O)N[C@H](C)C(=O)N[C@@H](C)C(=O)N2C)N(C)C3=O)cc1 [Compound 71, RA-V]",antiangiogenic activity in HUVEC and HMEC-1,[19],possessed the activity
same,cytotoxic activities against HL-60 and HCT-116,[13],potent cytotoxicities
same,effects on iNOS induction,[20],potent effects
same,activity against NO production in LPS,[21],exhibited activity
"CC(=O)O[C@@H]1C[C@@H](C(C)C)[C@]2(CO)CC[C@@]3(C)[C@H]4C(=CC[C@]3(C)[C@@H]12)[C@@]1(C)CC[C@H](O)C(C)(C)[C@@H]1C[C@@H]4O [Compound 22, Rubiarbonol G]",antifungal activity against Candida albicans,[22],exhibited inhibition
same,melting point,,170 to 173 °C
same,"inhibition on A549, Hela and SMMC-7721",[23],had inhibition
same,antibacterial activity against Staphylococcus aureus,[24],exhibited inhibition
